The values below come from US20210221785A1, “AMINO-PYRIMIDONYL DERIVATIVES, A PROCESS FOR THEIR PREPARATION AND PHARMACEUTICAL COMPOSITIONS CONTAINING THEM” (LES LABORATOIRES SERVIER, priority 2018, published 2021).

Experiment [1] deals with Z138 mantle cell lymphoma tumour cell lines. Description: In vitro cytotoxicity, MTT assay. Format: cell-based. The settings on record: Z138 cells exposed to the test compounds for 96 hours, cell viability vs DMSO treated cells. In a few lines: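 Z138 cells exposed to compounds for 96 hours, then MTT added for 4 hours. Viable cells quantified from formazan absorbance at 540 nm.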

Experiment [2] deals with T1, His-His-USP7 (aa208-560, |C315A|) (Homo sapiens, UniProt Q93009, C315A).
T1 construct: His-His-USP7 (aa208-560, |C315A|); His-His (N)
T1 sequence (Q93009 208-560 C315A): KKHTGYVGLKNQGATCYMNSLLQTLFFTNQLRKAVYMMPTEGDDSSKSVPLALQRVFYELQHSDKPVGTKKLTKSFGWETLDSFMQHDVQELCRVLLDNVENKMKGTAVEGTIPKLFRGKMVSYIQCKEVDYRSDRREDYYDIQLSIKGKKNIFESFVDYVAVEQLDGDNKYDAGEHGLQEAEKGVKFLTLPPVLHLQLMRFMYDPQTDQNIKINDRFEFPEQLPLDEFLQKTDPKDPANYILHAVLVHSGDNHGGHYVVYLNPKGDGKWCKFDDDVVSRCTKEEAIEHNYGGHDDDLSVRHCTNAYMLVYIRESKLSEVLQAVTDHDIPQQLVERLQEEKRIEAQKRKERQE
In words: Evaluation of the inhibition of USP7 by the Fluorescence Intensity (FLINT) readings. Format: biochemical. Particulars: 0.25 nM His-His-USP7, compound incubated 60 minutes at 30° C., 500 nM Ubiquitin-Rhodamine-110 substrate; 50% reduction in kinetic rate. A digest of the protocol: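 0.25 nM His-His-USP7 (aa208–560, C315A) preincubated 60 min at 30 °C with compound in 100 mM Bicine pH 8.0, 0.01% Triton X-100, 1 mM TCEP, 10% DMSO. Reaction started with 500 nM ubiquitin-rhodamine-110 and fluorescence (Ex485/Em535) read every 3 min for 21 min. IC50 derived from kinetic-rate reduction over an 11-point curve, 4-parameter fit.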

On to `Nc1c(Oc2ccc(CNCc3ccccc3)cc2)ncn(CC2(O)CCN(C(=O)[C@@H]3CCC(F)(F)C[C@H]3c3ccccc3)CC2)c1=O` [Example 76, 5-amino-6-{4-[(benzylamino)methyl]phenoxy}-3-({1-[(1R,2R)-4,4-difluoro-2-phenylcyclohexane-1-carbonyl]-4-hydroxypiperidin-4-yl}methyl)pyrimidin-4(3H)-one], for which the IC50 in experiment [1] (Homo sapiens, Z-138, 96 h) was 0.4 µM; in experiment [2], 15 nM.

For `Nc1c(Oc2ccc(CNC3CC3)cc2)ncn(CC2(O)CCN(C(=O)[C@@H]3CCC(F)(F)C[C@H]3c3ccccc3)CC2)c1=O` [Example 77], the IC50 in experiment [1] (Homo sapiens, Z-138, 96 h) is 0.156 µM; in experiment [2], 25 nM.

In the case of `Nc1c(Oc2ccc(F)cc2)ncn(C[C@@]2(O)CCN(C(=O)[C@@H]3CCC(F)(F)C[C@H]3c3ccccc3)CC2(F)F)c1=O` [Example 78, 5-amino-3-({(4S)-1-[(1R,2R)-4,4-difluoro-2-phenylcyclohexane-1-carbonyl]-3,3-difluoro-4-hydroxypiperidin-4-yl}methyl)-6-(4-fluorophenoxy)pyrimidin-4(3H)-one], the IC50 in experiment [1] (Homo sapiens, Z-138, 96 h) is 0.115 µM; in experiment [2], 57.5 nM.

Turning to `Nc1c(Oc2ccccc2)ncn(CC2(O)CCN(C(=O)[C@@H]3CC(F)(F)CC[C@H]3c3ccccc3)CC2)c1=O` [Example 82, 5-amino-3-({1-[(1R,2R)-5,5-difluoro-2-phenylcyclohexane-1-carbonyl]-4-hydroxypiperidin-4-yl}methyl)-6-phenoxypyrimidin-4(3H)-one], the IC50 worked out at 0.18 µM in experiment [1] (Homo sapiens, Z-138, 96 h) and 90.3 nM in experiment [2].

Regarding `Nc1c(Oc2ccccc2)ncn(CC2(O)CCN(C(=O)[C@@H]3CCC(F)(F)C[C@H]3n3cccc3)CC2)c1=O` [Example 83, 5-amino-3-({1-[(1R,2R)-4,4-difluoro-2-(1H-pyrrol-1-yl)cyclohexane-1-carbonyl]-4-hydroxypiperidin-4-yl}methyl)-6-phenoxypyrimidin-4(3H)-one], the IC50 in experiment [1] (Homo sapiens, Z-138, 96 h) worked out at 0.327 µM; in experiment [2] it was 220 nM.

On to `Nc1c(Oc2ccc(F)cc2)ncn(CC2(O)CCN(C(=O)[C@@H]3CCC(F)(F)C[C@H]3c3ccsc3)CC2)c1=O` [Example 89, 5-amino-3-({1-[(1R,2R)-4,4-difluoro-2-(thiophen-3-yl)cyclohexane-1-carbonyl]-4-hydroxypiperidin-4-yl}methyl)-6-(4-fluorophenoxy)pyrimidin-4(3H)-one], for which the IC50 amounted to 0.055 µM in experiment [1] (Homo sapiens, Z-138, 96 h) and 92 nM in experiment [2].

In the case of `NCc1ccc(Oc2ncn(C[C@@]3(O)CCN(C(=O)[C@@H]4CCC(F)(F)C[C@H]4c4ccccc4)CC3(F)F)c(=O)c2N)cc1` [Example 90, 5-amino-6-[4-(aminomethyl)phenoxy]-3-({(4S)-1-[(1R,2R)-4,4-difluoro-2-phenylcyclohexane-1-carbonyl]-3,3-difluoro-4-hydroxypiperidin-4-yl}methyl)pyrimidin-4(3H)-one], the IC50 in experiment [1] (Homo sapiens, Z-138, 96 h) was 0.16 µM; in experiment [2], 3.9 nM.

With `Nc1c(Oc2cccc(O)c2)ncn(C[C@@]2(O)CCN(C(=O)[C@@H]3CCC(F)(F)C[C@H]3c3ccccc3)CC2(F)F)c1=O` [Example 104, 5-amino-3-({(4S)-1-[(1R,2R)-4,4-difluoro-2-phenylcyclohexane-1-carbonyl]-3,3-difluoro-4-hydroxypiperidin-4-yl}methyl)-6-(3-hydroxyphenoxy)pyrimidin-4(3H)-one], the IC50 was found to be 0.014 µM in experiment [1] (Homo sapiens, Z-138, 96 h) and 41 nM in experiment [2].

Take `CN(C)Cc1ccc(Oc2ncn(CC3(O)CCN(C(=O)[C@@H]4CCC(F)(F)C[C@H]4c4ccccc4)CC3)c(=O)c2N)cc1` [Example 108, 5-amino-3-({1-[(1R,2R)-4,4-difluoro-2-phenylcyclohexane-1-carbonyl]-4-hydroxypiperidin-4-yl}methyl)-6-{4-[(dimethylamino)methyl]phenoxy}pyrimidin-4(3H)-one]: the IC50 in experiment [1] (Homo sapiens, Z-138, 96 h) is 0.654 µM; in experiment [2], 63.9 nM.

For the compound `Nc1c(Oc2ccc(F)c(O)c2)ncn(C[C@@]2(O)CCN(C(=O)[C@@H]3CCC(F)(F)C[C@H]3c3ccccc3)CC2(F)F)c1=O` [Example 109, 5-amino-3-({(4S)-1-[(1R,2R)-4,4-fluoro-2-phenylcyclohexane-1-carbonyl]-3,3-difluoro-4-hydroxypiperidin-4-yl}methyl)-6-(4-fluoro-3-hydroxyphenoxy)pyrimidin-4(3H)-one], the IC50 was determined as 0.0155 µM in experiment [1] and 40.3 nM in experiment [2].

As to `Nc1c(Oc2ccc(Cl)c(O)c2)ncn(CC2(O)CCN(C(=O)[C@@H]3CCC(F)(F)C[C@H]3c3ccccc3)CC2)c1=O` [Example 110, 5-amino-6-(4-chloro-3-hydroxyphenoxy)-3({1-[(1R,2R)-4,4-difluoro-2-phenylcyclohexane-1-carbonyl]-4-hydroxypiperidin-4-yl}methyl)pyrimidin-4(3H)-one], the IC50 stood at 0.0254 µM in experiment [1] (Homo sapiens, Z-138, 96 h) and 28 nM in experiment [2].

For the compound `Cc1ccc(Oc2ncn(CC3(O)CCN(C(=O)[C@@H]4CCC(F)(F)C[C@H]4c4ccccc4)CC3)c(=O)c2N)cc1O` [Example 111, 5-amino-3-({1-[(1R,2R)-4,4-difluoro-2-phenylcyclohexane-1-carbonyl]-4-hydroxypiperidin-4-yl}methyl)-6-(3-hydroxy-4-methylphenoxy)pyrimidin-4(3H)-one], the IC50 in experiment [1] (Homo sapiens, Z-138, 96 h) was 0.0588 µM; in experiment [2], 22.1 nM.

Consider `Nc1c(Oc2cccc(C3CNCCO3)c2)ncn(CC2(O)CCN(C(=O)[C@@H]3CCC(F)(F)C[C@H]3c3ccccc3)CC2)c1=O` (stereo partly drawn) [Example 115, 5-amino-3-([1-[(1R,2R)-4,4-difluoro-2-phenylcyclohexane-1-carbonyl]-4-hydroxypiperidin-4-yl]methyl)-6-[3-(morpholin-2-yl)phenoxy]pyrimidin-4(3H)-one], for which the IC50 in experiment [1] (Homo sapiens, Z-138, 96 h) was determined as 0.85 µM; in experiment [2], 37.2 nM.

As for `N#CCc1ccc(Oc2ncn(CC3(O)CCN(C(=O)[C@@H]4CCC(F)(F)C[C@H]4c4ccccc4)CC3)c(=O)c2N)cc1` [Example 117, (4-{[5-amino-1-({1-[(1R,2R)-4,4-difluoro-2-phenylcyclohexane-1-carbonyl]-4-hydroxypiperidin-4-yl}methyl)-6-oxo-1,6-dihydropyrimidin-4-yl]oxy}phenyl)acetonitrile], the IC50 in experiment [1] (Homo sapiens, Z-138, 96 h) is 0.617 µM; in experiment [2], 82.2 nM.

Consider `Nc1c(Oc2ccc(F)c(CO)c2)ncn(CC2(O)CCN(C(=O)[C@@H]3CCC(F)(F)C[C@H]3c3ccccc3)CC2)c1=O` [Example 118, 5-amino-3-({1-[(1R,2R)-4,4-difluoro-2-phenylcyclohexane-1-carbonyl]-4-hydroxypiperidin-4-yl}methyl)-6-[4-fluoro-3-(hydroxymethyl)phenoxy]pyrimidin-4(3H)-one], for which the IC50 worked out at 0.0413 µM in experiment [1] (Homo sapiens, Z-138, 96 h) and 33.1 nM in experiment [2].

Take `Nc1cc(Oc2ncn(CC3(O)CCN(C(=O)[C@@H]4CCC(F)(F)C[C@H]4c4ccccc4)CC3)c(=O)c2N)ccc1F` [Example 119, 5-amino-6-(3-amino-4-fluorophenoxy)-3-({1-[(1R,2R)-4,4-difluoro-2-phenylcyclohexane-1-carbonyl]-4-hydroxypiperidin-4-yl}methyl)pyrimidin-4(3H)-one]: the IC50 in experiment [1] (Homo sapiens, Z-138, 96 h) was 0.0613 µM; in experiment [2] it was 38 nM.

Consider `CC(C)c1ccc(Oc2ncn(CC3(O)CCN(C(=O)[C@@H]4CCC(F)(F)C[C@H]4c4ccccc4)CC3)c(=O)c2N)cc1O` [Example 120, 5-amino-3-({1-[(1R,2R)-4,4-difluoro-2-phenylcyclohexane-1-carbonyl]-4-hydroxypiperidin-4-yl}methyl)-6-[3-hydroxy-4-(propan-2-yl)phenoxy]pyrimidin-4(3H)-one], for which the IC50 in experiment [1] (Homo sapiens, Z-138, 96 h) worked out at 0.103 µM; in experiment [2] it was 16.3 nM.

For `Nc1c(Oc2ccc(C3CCCCN3)cc2)ncn(CC2(O)CCN(C(=O)[C@@H]3CCC(F)(F)C[C@H]3c3ccccc3)CC2)c1=O` (stereo partly drawn) [Example 121, 5-amino-3-({1-[(1R,2R)-4,4-difluoro-2-phenylcyclohexane-1-carbonyl]-4-hydroxypiperidin-4-yl}methyl)-6-[4-(piperidin-2-yl)phenoxy]pyrimidin-4(3H)-one], the IC50 in experiment [1] (Homo sapiens, Z-138, 96 h) stood at 0.546 µM; in experiment [2], 3.08 nM.

On to `C#C[C@]1(F)CC[C@@H](C(=O)N2CCC(O)(Cn3cnc(Oc4ccc(F)cc4)c(N)c3=O)CC2)[C@H](c2ccccc2)C1` [Example 122, 5-amino-3-({1-[(1R,2R,4S)-4-ethynyl-4-fluoro-2-phenylcyclohexanecarbonyl]-4-hydroxypiperidin-4-yl}methyl)-6-(4-fluorophenoxy)-3,4-dihydropyrimidin-4-one], for which the IC50 amounted to 0.0374 µM in experiment [1] (Homo sapiens, Z-138, 96 h) and 26.3 nM in experiment [2].

With `C#C[C@@]1(F)CC[C@@H](C(=O)N2CCC(O)(Cn3cnc(Oc4ccc(F)cc4)c(N)c3=O)CC2)[C@H](c2ccccc2)C1` [Example 123, 5-amino-3-({1-[(1R,2R,4R)-4-ethynyl-4-fluoro-2-phenylcyclohexanecarbonyl]-4-hydroxypiperidin-4-yl}methyl)-6-(4-fluorophenoxy)-3,4-dihydropyrimidin-4-one], the half-maximal inhibitory concentration (IC50) in experiment [1] (Homo sapiens, Z-138, 96 h) was 0.0466 µM; in experiment [2] it was 35.4 nM.

As to `Nc1c(Oc2ccc(F)cc2)ncn(CC2(O)CCN(C(=O)[C@@H]3CC[C@](F)(C#Cc4cccnc4)C[C@H]3c3ccccc3)CC2)c1=O` [Example 130, 5-amino-3-[(1-{[(1R,2R,4R)-4-fluoro-2-phenyl-4-[2-(pyridin-3-yl)ethynyl]cyclohexyl]carbonyl}-4-hydroxypiperidin-4-yl)methyl]-6-(4-fluorophenoxy)pyrimidin-4-one], the IC50 was found to be 0.0144 µM in experiment [1] (Homo sapiens, Z-138, 96 h) and 17 nM in experiment [2].
